Data as given in PubChem BioAssay AID2060483 (Molecular Pharmacology Branch, DTP, NCI, 2025).
Where “and” joins values, the source holds several entries; their conditions need not be identical. Equal values may be shown once. Each block holds one compound with its values, some of them ahead of it.

Test system: K24384-001-R-PDC complex spheroids, viability
Assay: Anticancer human tumor K24384-001-R-PDC patient-derived pancreatic adenocarcinoma cell line growth inhibition [GQUAD]
Conditions: for viability, T/C: stronger effect = lower value
Excerpt: DNA G-quadruplex Stabilizer Agents in Combinations in Complex Spheroids
A high-throughput screen of multi-cell type tumor spheroids was designed to identify active combinations of DNA G-quadruplex stabilizer agents and targeted small molecules. Complex spheroids include a stromal component modeled by human endothelial cells (HUVEC) and fibroblasts modeled by human mesenchymal stem cells (MSCs). The concentration ranges selected for each drug and investigational agent were based upon clinically achievable concentrations if the clinical Cmax of the agent was known.
Compounds. The drugs and investigational agents: pidnarulex (CX-5461; NSC782164), APTO-253 (NSC789042), BRACO-19 (NSC847499), peposertib (NSC802822), ceralasertib (NSC780249), elimusertib (NSC800525), camonsertib (NSC841442), AZD-1390 (NSC803789), olaparib (NSC753686), talazoparib (NSC767125), ART-558 (NSC835418), sotorasib (NSC818433), MRTX-1133 (NSC836407), SN-38 (NSC673596), topotecan (NSC609699), etoposide (NSC141540), doxorubicin (NSC123127), gemcitabine (NSC613327), 5-fluorouracil (NSC19893), paclitaxel (NSC125973), vemurafenib (NSC761431), panobinostat (NSC761190), R-306465 (JNJ-16241199; NSC773264), adavosertib (NSC754352), TP-3654 (NSC805149), carboplatin (NSC241240), KSQ-4279 (NSC840948), and staurosporine (NSC755774) were obtained from the National Cancer Institute (NCI) Developmental Therapeutics Program Chemical Repository (34). The FDA-approved anticancer drug set is available from the NCI Developmental Therapeutics Program. […] The stock solutions were prepared in dimethyl sulfoxide (DMSO, Sigma-Aldrich, St. Louis, MO, cat. D2650) at 800-fold the tested concentration and stored at -70 degrees C prior to their use. All drugs and investigational agents were tested over a range starting from a high concentration at or near the clinical Cmax and decreasing in half-log increments. If the clinical Cmax for an agent had not been determined, the highest concentration tested was 10 microM.
2.3 Cell Culture. All cells were maintained in an incubator at 37 degrees C and 5% CO2 with 95% humidity. The PDC lines were cultured according to standard operating procedures established by the NCI PDMR. All PDCs were thawed and cultured in Matrigel-coated flasks prepared with a working solution of 1X Ham's F-12 nutrient mix, without supplementation (Invitrogen, cat. 11765054), 100 U/mL penicillin-streptomycin (Invitrogen, cat. 15140122), and 2.5% Matrigel (Corning Inc., cat. 354248) for the first three passages. The 857933-349-R-J2-PDC line was cultured in 6C/Colon 1B media, which includes advanced DMEM/F-12 (Thermo Fisher Scientific, cat. 12634028), 10 mM HEPES (Thermo Fisher Scientific, cat. 15630080), 1X GlutaMAX supplement (Thermo Fisher Scientific, cat. 35050061), 0.1 mg/mL primocin (InvivoGen, cat. ant-pm-2), 10% defined fetal bovine serum, heat inactivated (HyClone Laboratories Inc., cat. SH30070.03HI), 50% L-WRN conditioned media (ATCC, cat. CRL-3276), 1.25 mM N-Acetyl-L-cysteine (Sigma-Aldrich, cat. A9165), 10 mM nicotinamide (Sigma-Aldrich, cat. N0636), 1X B-27 supplement (Thermo Fisher Scientific, cat. 17504044), 1X N-2 supplement (Thermo Fisher Scientific, cat. 17502048), 10 microM Y-27632 dihydrochloride (Tocris Bioscience, cat. 1254), and 50 ng/mL human EGF recombinant protein (Thermo Fisher Scientific, cat. PHG0311). The 485176-168-R4-J1-PDC line was cultured in Panc media, which includes all 6C/Colon 1B media components plus 100 ng/mL human FGF-10 (Thermo Fisher Scientific, cat. 100-26), 500 nM SB-431542 (Selleckchem, cat. S1067), and gastrin (Tocris, cat. 3006).
[…]
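Further: spheroids exposed to compounds for seven days.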

IC50 (curve of compound): > 10000 nM
Compound: COc1ncnc(C2CC2)c1-c1ncc2cnn(Cc3ccc(-c4nc(C(F)(F)F)cn4C(C)C)cc3)c2n1
viability, T/C (compound 0.0316 µM): 90.9% and 94.8% and 89.7% | viability, T/C (compound 0.1 µM): 101% and 104% and 81.5% | viability, T/C (compound 0.316 µM): 100% and 102% and 101% | viability, T/C (compound 1 µM): 75.5% and 96.3% and 84.7% | viability, T/C (compound 3.16 µM): 109% and 103% and 87.2% | viability, T/C (compound 10 µM): 96.1% and 110% and 99.2%

IC50 (curve of compound): 1680 nM and 2240 nM and 1390 nM
Compound: CC(C)(O)C1CCC(Nc2ccc3ncc(-c4cccc(C(F)(F)F)c4)n3n2)CC1 (stereo unspecified)
viability, T/C (compound 0.0316 µM): 103% and 104% and 99% | viability, T/C (compound 0.1 µM): 95.2% and 105% and 94.7% | viability, T/C (compound 0.316 µM): 113% and 101% and 108% | viability, T/C (compound 1 µM): 61% and 80.7% and 57.2% | viability, T/C (compound 3.16 µM): 25% and 33.2% and 28.8% | viability, T/C (compound 10 µM): 48% and 40.7% and 36%

IC50 (curve of compound): > 316 nM
Compound: CC[C@@]1(O)C(=O)OCc2c1cc1n(c2=O)Cc2cc3c(CN(C)C)c(O)ccc3nc2-1
viability, T/C (compound 0.000999 µM): 103% and 111% and 108% | viability, T/C (compound 0.00316 µM): 83.2% and 92.2% and 77.5% | viability, T/C (compound 0.00999 µM): 97.7% and 100% and 114% | viability, T/C (compound 0.0316 µM): 82.8% and 82.3% and 80.1% | viability, T/C (compound 0.0999 µM): 66.6% and 50.2% and 63.6% | viability, T/C (compound 0.316 µM): 53% and 58.5% and 51.3%

IC50 (compound alone, run of 02/20/2024): > 10000 nM and 9080 nM | IC50 (compound alone, run of 02/26/2024): > 10000 nM
Compound: Cc1[nH]c2ccc(F)cc2c1-c1nc2c3cccnc3c3ncccc3c2[nH]1
viability, T/C (compound 0.0316 µM): 109% [middle of 12 runs] | viability, T/C (compound 0.1 µM): 102% [middle of 12 runs] | viability, T/C (compound 0.316 µM): 99% [middle of 12 runs] | viability, T/C (compound 3.16 µM): 65.3% [middle of 12 runs]

IC50 (curve of compound): 108 nM and 178 nM and 64.2 nM
Compound: CC1COCCN1c1cc(C2(O)CC3CCC(C2)O3)c2cnn(-c3ccn[nH]3)c2n1 (stereo unspecified)
viability, T/C (compound 0.0316 µM): 80.5% and 78% and 64.4% | viability, T/C (compound 0.1 µM): 43.7% and 56.4% and 38.6% | viability, T/C (compound 0.316 µM): 40% and 45.8% and 33.4% | viability, T/C (compound 1 µM): 29.1% and 26.3% and 24.6% | viability, T/C (compound 3.16 µM): 24.8% and 25.7% and 32.5% | viability, T/C (compound 10 µM): 13.2% and 19% and 15%

IC50 (curve of compound): > 10000 nM
Compound: CC(C)n1c(=O)n(C)c2cnc3cc(F)c(-c4ccc(OCCCN5CCCCC5)nc4)cc3c21
viability, T/C (compound 0.0316 µM): 108% and 84.2% and 93.7% | viability, T/C (compound 0.1 µM): 89% and 95.3% and 95.1% | viability, T/C (compound 0.316 µM): 116% and 97.8% and 99.7% | viability, T/C (compound 1 µM): 120% and 88% and 123% | viability, T/C (compound 3.16 µM): 123% and 107% and 119% | viability, T/C (compound 10 µM): 92.1% and 80.3% and 90.2%
